Source: patent US20090130035A1, “STABILIZED PREPARATIONS COMPRISING PHENOLIC COMPOUNDS AND BENZOPHENONES” (SYMRISE GmbH & Co. KG, priority 2006, published 2009)

How the values were obtained:
Type in all cases: physicochemical
[1] = Irradiation (24 h UV test, Ultra-Vitalux W300) of oil phase solutions, chromametric b* values; details: for b* value: after irradiation
Description: In order to examine to what extent the stability of the compound of the formula (IA) can be increased by predissolution in an oil phase to which an oil-soluble photoprotective filter of the formula (II) is added, irradiation experiments were conducted. The oil phase used was 2-ethylhexyl isononanoate (INCI: Ethylhexyl isononanoate). The amount of 4-(1-phenylethyl)-1,3-dihydroxybenzene (formula (IA) was in this case in a range from 10% to 20% by weight, based on the amount of oil phase. The amount of the photoprotective filter added for colour stabilization, 2-hydroxy-4-methoxybenzophenone (INCI: Benzophenone-3, formula (IIC)), was in each case 1% by weight. In order to examine to what extent the addition of a photoprotective filter of the formula (II) is advantageous, all of the samples were irradiated for 24 hours with light (light source: Ultra-Vitalux W300). For the measurement of any colour changes that occurred, all of the samples were subjected to chromametry both before and after irradiation to determine the b* values, which represent a measure of the shift in the blue-yellow axis and so give a direct indication of a yellow discoloration occurring.

[2] = pH series: aqueous-ethanolic solutions stored in the dark for 28 days, chromametric b* values; details: after 28 days, without disodium EDTA
Description: In order to examine to what extent the degradation and the associated yellow to brown discoloration of 4-(1-phenylethyl)-1,3-dihydroxybenzene (CARN: 85-27-8; formula (IA)) in cosmetic and pharmaceutical formulations is also influenced by the pH value of the preparation, serial pH experiments were conducted, by dissolving 4-(1-phenylethyl)-1,3-dihydroxybenzene (CARN: 85-27-8; formula (IA)) in aqueous/ethanolic solutions which had been adjusted to different pH values (pH 4, 5, 7 and 9, Table 2) using buffer solutions. The amount of 4-(1-phenylethyl)-1,3-dihydroxybenzene (CARN: 85-27-8; formula (IA)) was in each case 0.5 percent by weight. All of the samples were stored in the dark for 28 days at room temperature. In order to measure any colour changes occurring, all samples were subjected to chromametric determination, both at the beginning of the experiment and at the end of a storage time of 28 days, of the b* values, which represent a measure of the shift in the blue-yellow axis and therefore give a direct indication of any yellow discoloration occurring.

[3] = pH series with disodium EDTA: aqueous-ethanolic solutions stored in the dark for 28 days, chromametric b* values; details: after 28 days
From the text: The amount of 4-(1-phenylethyl)-1,3-dihydroxybenzene (CARN: 85-27-8; formula (IA)) was again in each case 0.5 percent by weight. The samples were likewise stored in the dark at room temperature for 28 days.

CC(c1ccccc1)c1ccc(O)cc1O (stereo not shown) [4-(1-phenylethyl)-1,3-dihydroxybenzene]
b* value ([1]; reference specimen not stabilized with benzophenone-3): 34.0 | b* value ([1]; solution with 10 percent by weight, plus 1 percent benzophenone-3): 10.3 | b* value ([1]; solution with 15 percent by weight, plus 1 percent benzophenone-3): 15.5 | b* value ([1]; solution with 20 percent by weight, plus 1 percent benzophenone-3): 10.6 | stability of solutions on irradiation with light ([1]; light source Ultra-Vitalux W300, yellowish to brownish discoloration): a certain instability | b* value ([2]; pH 4, 0.5% solution): 2.0 | b* value ([2]; pH 5, 0.5% solution): 4.6 | b* value ([2]; pH 7, 0.5% solution): 19.4 | b* value ([2]; pH 9, 0.5% solution): 55.3 | b* value ([3]; pH 4, 0.5% solution): 1.5 | b* value ([3]; pH 5, 0.5% solution): 3.6 | b* value ([3]; pH 7, 0.5% solution): 14.8 | b* value ([3]; pH 9, 0.5% solution): 40.2
